Test [1] addresses T1, Mineralocorticoid receptor (Homo sapiens, UniProt P08235).
T1 sequence (P08235 whole entry): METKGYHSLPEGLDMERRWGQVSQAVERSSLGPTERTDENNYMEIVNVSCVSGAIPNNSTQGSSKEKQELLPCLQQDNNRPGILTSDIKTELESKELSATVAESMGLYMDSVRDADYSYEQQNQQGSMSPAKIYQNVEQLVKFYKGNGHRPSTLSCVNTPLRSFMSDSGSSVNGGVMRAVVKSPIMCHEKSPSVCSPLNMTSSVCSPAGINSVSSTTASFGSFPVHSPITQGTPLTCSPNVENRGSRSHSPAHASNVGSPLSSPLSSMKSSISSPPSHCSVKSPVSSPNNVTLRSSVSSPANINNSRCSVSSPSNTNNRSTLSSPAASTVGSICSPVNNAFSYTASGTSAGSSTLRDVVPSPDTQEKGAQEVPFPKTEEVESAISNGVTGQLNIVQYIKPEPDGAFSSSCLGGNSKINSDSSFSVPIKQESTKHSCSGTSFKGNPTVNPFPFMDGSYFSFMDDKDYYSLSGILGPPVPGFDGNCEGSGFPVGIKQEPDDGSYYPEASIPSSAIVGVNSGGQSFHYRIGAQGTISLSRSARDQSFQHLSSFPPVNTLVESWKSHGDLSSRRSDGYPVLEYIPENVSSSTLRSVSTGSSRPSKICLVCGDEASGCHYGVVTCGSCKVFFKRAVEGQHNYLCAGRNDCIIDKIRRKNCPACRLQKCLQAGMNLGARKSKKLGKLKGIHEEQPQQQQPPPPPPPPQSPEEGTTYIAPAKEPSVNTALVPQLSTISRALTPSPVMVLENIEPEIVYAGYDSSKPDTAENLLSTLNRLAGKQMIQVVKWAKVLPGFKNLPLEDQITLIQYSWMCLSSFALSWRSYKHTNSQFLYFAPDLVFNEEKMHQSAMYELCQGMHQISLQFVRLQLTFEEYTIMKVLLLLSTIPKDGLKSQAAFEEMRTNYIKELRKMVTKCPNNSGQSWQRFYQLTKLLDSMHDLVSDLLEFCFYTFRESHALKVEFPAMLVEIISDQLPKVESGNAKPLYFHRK
As to the kind of experiment: biochemical.
Description: Displacement of [3H]-aldosterone from recombinant human mineralocorticoid receptor expressed in baculovirus infected insect cells incubated overnight by liquid scintillation counting analysis

Test [2] concerns the target T2, Glucocorticoid receptor (Rattus norvegicus, UniProt P06536).
T2 sequence (P06536 whole entry): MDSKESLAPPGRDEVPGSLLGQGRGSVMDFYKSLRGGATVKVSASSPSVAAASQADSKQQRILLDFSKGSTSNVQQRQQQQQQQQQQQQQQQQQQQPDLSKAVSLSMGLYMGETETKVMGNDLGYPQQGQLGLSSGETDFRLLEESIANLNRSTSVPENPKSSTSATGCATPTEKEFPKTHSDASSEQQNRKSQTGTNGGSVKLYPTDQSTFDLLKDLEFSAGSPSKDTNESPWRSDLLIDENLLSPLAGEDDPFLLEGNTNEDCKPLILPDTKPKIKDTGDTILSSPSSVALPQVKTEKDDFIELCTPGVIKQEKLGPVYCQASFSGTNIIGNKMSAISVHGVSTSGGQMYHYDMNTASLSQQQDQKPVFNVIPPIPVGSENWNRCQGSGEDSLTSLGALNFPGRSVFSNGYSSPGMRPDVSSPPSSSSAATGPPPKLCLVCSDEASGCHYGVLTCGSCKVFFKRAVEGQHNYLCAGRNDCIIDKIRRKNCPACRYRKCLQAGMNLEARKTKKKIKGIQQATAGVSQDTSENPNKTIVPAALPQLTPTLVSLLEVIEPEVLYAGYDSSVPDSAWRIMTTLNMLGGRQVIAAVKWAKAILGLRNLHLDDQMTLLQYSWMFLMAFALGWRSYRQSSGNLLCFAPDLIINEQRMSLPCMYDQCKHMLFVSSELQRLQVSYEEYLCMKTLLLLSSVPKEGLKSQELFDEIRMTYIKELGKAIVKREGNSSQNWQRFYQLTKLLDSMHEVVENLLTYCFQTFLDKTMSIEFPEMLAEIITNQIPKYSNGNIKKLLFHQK
Kind of test: Displacement of [3H]-dexamethasone from rat glucocorticoid receptor incubated overnight by liquid scintillation counting analysis. (In general: Displacement assays read how much labelled ligand stays bound in the presence of the test substance.)

The target in test [3] is T3, Mineralocorticoid receptor (Rattus norvegicus, UniProt P22199).
T3 sequence (P22199 whole entry): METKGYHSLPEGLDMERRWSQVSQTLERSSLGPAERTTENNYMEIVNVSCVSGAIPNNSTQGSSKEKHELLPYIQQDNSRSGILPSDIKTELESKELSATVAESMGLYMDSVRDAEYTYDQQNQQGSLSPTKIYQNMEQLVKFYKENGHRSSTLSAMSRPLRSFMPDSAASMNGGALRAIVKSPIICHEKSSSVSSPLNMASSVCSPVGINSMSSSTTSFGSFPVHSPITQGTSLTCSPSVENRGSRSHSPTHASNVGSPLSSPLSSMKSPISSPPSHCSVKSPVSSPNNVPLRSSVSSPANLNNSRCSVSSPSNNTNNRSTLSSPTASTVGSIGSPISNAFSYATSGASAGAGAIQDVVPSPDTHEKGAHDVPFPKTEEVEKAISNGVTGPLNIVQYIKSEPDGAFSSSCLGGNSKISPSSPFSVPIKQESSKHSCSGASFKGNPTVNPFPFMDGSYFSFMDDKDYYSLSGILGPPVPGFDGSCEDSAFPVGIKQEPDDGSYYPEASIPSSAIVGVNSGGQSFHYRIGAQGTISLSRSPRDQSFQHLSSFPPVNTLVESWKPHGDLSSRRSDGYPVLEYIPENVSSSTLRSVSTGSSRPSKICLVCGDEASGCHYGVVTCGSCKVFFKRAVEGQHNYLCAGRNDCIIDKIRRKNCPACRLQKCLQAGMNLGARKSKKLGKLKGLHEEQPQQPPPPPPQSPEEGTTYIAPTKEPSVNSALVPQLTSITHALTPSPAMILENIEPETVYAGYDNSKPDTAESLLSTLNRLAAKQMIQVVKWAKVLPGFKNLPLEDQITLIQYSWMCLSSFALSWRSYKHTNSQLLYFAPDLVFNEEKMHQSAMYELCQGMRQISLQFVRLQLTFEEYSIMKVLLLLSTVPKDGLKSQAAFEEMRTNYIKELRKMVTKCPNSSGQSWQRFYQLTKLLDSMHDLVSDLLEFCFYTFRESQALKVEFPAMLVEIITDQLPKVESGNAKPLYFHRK
Description: Displacement of [3H]-aldosterone from rat mineralocorticoid receptor incubated overnight by liquid scintillation counting analysis

In another test the test system is CHO-K1. Kind of test: Antagonist activity at human mineralocorticoid receptor S810L mutant expressed in CHO-K1 cells assessed as inhibition of aldosterone-induced transcriptional activity at 300 nM incubated for 24 hrs in presence of aldosterone at 0.5 nM by reporter gene assay relative to control. In kind it is cell-based. As to conditions: filed as antagonist. Further details: scale not given: the % may be the effect or the level left. For orientation: Reporter assays use an easily measured gene product as a stand-in for the process of interest.

Test [4] deals with T4, Glucocorticoid receptor (Homo sapiens, UniProt P04150).
T4 sequence (P04150 whole entry): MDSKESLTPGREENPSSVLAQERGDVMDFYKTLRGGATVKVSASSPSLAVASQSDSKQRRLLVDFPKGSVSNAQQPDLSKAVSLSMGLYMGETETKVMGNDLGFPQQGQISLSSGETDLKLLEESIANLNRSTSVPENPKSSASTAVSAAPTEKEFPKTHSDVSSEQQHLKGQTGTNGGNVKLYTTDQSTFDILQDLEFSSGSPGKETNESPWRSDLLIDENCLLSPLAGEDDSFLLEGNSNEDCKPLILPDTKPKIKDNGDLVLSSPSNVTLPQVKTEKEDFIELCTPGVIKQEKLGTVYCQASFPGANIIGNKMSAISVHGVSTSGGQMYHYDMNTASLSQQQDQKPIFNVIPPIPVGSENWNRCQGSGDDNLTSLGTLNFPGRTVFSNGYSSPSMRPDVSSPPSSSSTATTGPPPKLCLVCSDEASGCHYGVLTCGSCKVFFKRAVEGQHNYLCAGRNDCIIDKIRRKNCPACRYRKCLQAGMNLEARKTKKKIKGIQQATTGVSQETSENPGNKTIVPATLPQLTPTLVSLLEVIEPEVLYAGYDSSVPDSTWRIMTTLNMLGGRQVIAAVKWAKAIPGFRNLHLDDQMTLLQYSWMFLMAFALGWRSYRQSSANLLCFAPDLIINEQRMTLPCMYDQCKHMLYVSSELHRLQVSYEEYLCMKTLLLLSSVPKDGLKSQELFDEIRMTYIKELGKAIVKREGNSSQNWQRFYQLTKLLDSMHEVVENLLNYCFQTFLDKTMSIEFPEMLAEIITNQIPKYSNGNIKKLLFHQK
Kind of test: biochemical.
Description: Displacement of [3H]-dexamethasone from recombinant full length human glucocorticoid receptor expressed in baculovirus infected insect cells incubated overnight by liquid scintillation counting analysis

For test [5], the target named is T5, Mineralocorticoid receptor (Homo sapiens) (UniProt P08235).
T5 sequence (whole entry): T1 sequence (P08235 whole entry)
As to the kind of experiment: Antagonist activity at human wild-type mineralocorticoid receptor expressed in CHO-K1 cells assessed as inhibition of aldosterone-induced transcriptional activity incubated for 24 hrs in presence of 1 nM aldosterone by Steady-Glo reagent based reporter gene assay relative to control. In kind it is cell-based. Also on record: scale not given: the % may be the effect or the level left. As to conditions: filed as antagonist.

SMILES strings stand for the structures. A value given as a limit tells only on which side of the number the result lay.

As to `CS(=O)(=O)Nc1ccc2c(c1)OC(c1ccccc1)C(=O)N2c1ccc(F)cc1` (centres undefined), the Ki in test [1] came to 0.342 µM; at Glucocorticoid receptor [2] it was 55.2 µM; in test [3], 0.25 µM.
Turning to `CCN(c1ccccc1)c1ccc(NS(C)(=O)=O)cc1`, the Ki in test [1] worked out at 0.607 µM; at Glucocorticoid receptor [2], 45 µM; in test [3], 1.56 µM.
Take `CC(C)(c1ccccc1)c1ccc(S(N)(=O)=O)cc1`: the inhibition constant (Ki) (at Glucocorticoid receptor [2]; in test [3]) was above 100 µM throughout.
With `CC1Oc2cc(NS(C)(=O)=O)ccc2N(c2ccc(F)cc2)C1=O` (centres undefined), the Ki turned out to be 0.16 µM in test [1], 136 µM on Glucocorticoid receptor [2] and 0.201 µM in test [3].
For the compound `CN(c1ccccc1)c1ccc(NS(C)(=O)=O)cc1`, the Ki in test [1] amounted to 0.735 µM; on Glucocorticoid receptor [2], 47.2 µM; in test [3], 0.853 µM.
For `CS(=O)(=O)Nc1ccc(N(Cc2ccccc2)c2ccccc2)cc1`, the inhibitory constant (Ki) in test [1] worked out at 0.147 µM; at Glucocorticoid receptor [2], 29.1 µM; in test [3], 0.357 µM.
`CC1(C)CN(c2ccc(F)cc2)c2ccc(NS(C)(=O)=O)cc2O1` showed a Ki on Glucocorticoid receptor [2] of 43.2 µM.
As for `CC(=O)Nc1ccc(C(C)(C)c2ccccc2)cc1`, the Ki (on Glucocorticoid receptor [2]; in test [3]) was above 100 µM in each case.
For the compound `CNS(=O)(=O)c1ccc(C(C)(C)c2ccccc2)cc1`, the Ki was 1.37 µM in test [1], above 100 µM at Glucocorticoid receptor [2] and 4.31 µM in test [3].
Turning to `CS(=O)(=O)Nc1ccc2c(c1)OC1(CC1)C(=O)N2c1ccc(F)cc1`, the Ki in test [1] is 0.808 µM; at Glucocorticoid receptor [2], above 100 µM; in test [3] it was 0.549 µM.
Consider `CS(=O)(=O)Nc1ccc(N(C(=O)c2ccccc2)c2ccc(F)cc2)cc1`, for which, on Glucocorticoid receptor [2], the Ki worked out at 41.5 µM.
Turning to `CS(=O)(=O)Nc1ccc(Nc2ccccc2)cc1`, the inhibition constant Ki (at Glucocorticoid receptor [2]; in test [3]) was above 100 µM each time.
On to `CCS(=O)(=O)Nc1ccc(C(C)(C)c2ccccc2)cc1`, for which the Ki in test [1] amounted to 1.92 µM; at Glucocorticoid receptor [2] it was 37.9 µM; in test [3], 3.77 µM.
The matching figures for `CS(=O)(=O)Nc1ccc2c(c1)OC1(CCC1)C(=O)N2c1ccc(F)cc1`: 0.152 µM, above 100 µM and 0.626 µM.
As to `CN(C)S(=O)(=O)Nc1ccc(C(C)(C)c2ccccc2)cc1`, the results for the Ki (on Glucocorticoid receptor [2]; in test [3]) were 29 µM and 6.88 µM, respectively.
In the case of `CC(C)(c1ccccc1)c1cccc(NS(C)(=O)=O)c1`, the Ki was 19.6 µM at Glucocorticoid receptor [2] and 12 µM in test [3].
As for `CC(C)(c1ccccc1)c1ccc(NS(C)(=O)=O)cc1`, the Ki in test [1] was 0.74 µM; at Glucocorticoid receptor [2], 40 µM; in test [3] it was 1.96 µM.
Regarding `CS(=O)(=O)Nc1ccc2c(c1)OCC(=O)N2c1ccc(F)cc1`, the Ki at Glucocorticoid receptor [2] is above 100 µM; in test [3] it was 1.75 µM.
Turning to `CC(=O)c1ccc(N(Cc2ccccc2)c2ccc(NS(C)(=O)=O)cc2)cc1`, the values for the Ki (at Glucocorticoid receptor [2]; in test [3]) were 25.4 µM and 5.67 µM, respectively.
As for `CS(=O)(=O)Nc1ccc(N(C(=O)c2ccccc2)c2ccccc2)cc1`, the inhibition constant (Ki) in test [1] amounted to 1.27 µM; on Glucocorticoid receptor [2], 22.2 µM; in test [3] it was 1.24 µM.
For the compound `CC(C)(c1ccccc1)c1ccc(NS(=O)(=O)C(F)(F)F)cc1`, the inhibitory constant (Ki) (at Glucocorticoid receptor [2]; in test [3]) was above 100 µM each time.
Regarding `CC(=O)S[C@@H]1CC2=CC(=O)CC[C@]2(C)[C@H]2CC[C@@]3(C)[C@@H](CC[C@@]34CCC(=O)O4)[C@H]12` [SPIRONOLACTONE], the Activity was found to be 58.5% in the test with CHO-K1 and 98.3% in test [5]. Also, the IC50 against Glucocorticoid receptor [4] is 6.05 µM.

The term Ki denotes the equilibrium dissociation constant of an inhibitor or competing ligand from its target. As usually defined, the IC50 is the concentration that inhibits the measured activity by half.

Source of the values: ChEMBL document CHEMBL5131538 (J Med Chem, 2022).
